Experimental data taken from publication PMC6291527, “A Nanostructured Lipid System to Improve the Oral Bioavailability of Ruthenium(II) Complexes for the Treatment of Infections Caused by Mycobacterium tuberculosis” (Frontiers in Microbiology, 2018).
Marks after values point to notes of the source that are not given here.

Experiments:
[1] = test system: mouse macrophages (J774A.1); test: In vitro cytotoxic activity (resazurin) in macrophages; type: cell-based; conditions: complex solubilized in DMSO; J774A.1 macrophages, 24 h
Method: The cytotoxicity of the complexes solubilized in DMSO and loaded into the NLS was measured in mouse macrophages (J774A.1 ATCCb TIB-67) as described by [Pavan et al. (2010a)]. The cells were incubated at 37°C with 5% CO2 on plates with a surface area of 12.50 cm^2 in 10 ml RPMI (Vitrocell®, Campinas, SP, Brazil) supplemented with 10% fetal bovine serum, gentamicin sulfate (50 mg l^-1) and amphotericin B (2 mg l^-1). This technique consists of collecting the cells using a scraper, centrifuging (2000 rpm for 5 min), counting the number of cells in a Newbauer chamber, and then adjusting the concentration to 3.4 × 10^5 cells ml^-1 in RPMI. Next, 200 μl suspension was deposited into each well of a 96-well microplate and incubated at 37°C in an atmosphere of 5% CO2 for 24 h to allow the cells to attach to the plate. Dilutions of the test compounds were prepared to obtain concentrations from 500 to 1.95 μg ml^-1. […] The cytotoxicity of the compounds was determined by adding 30 μl developer of resazurin and read after a 6-h incubation. The reading was performed in a microplate Cytation 3 (Biotek®, Winooski, VT, United States) reader using excitation and emission filters at wavelengths of 530 and 590 nm, respectively. The cytotoxicity (IC50) was defined as the highest concentration of compound inhibiting the growth of at least 50% of the cells and was obtained from non-linear regression using GraphPad Prism 7.0 for Windows.

[2] = test system: M. tuberculosis H37Rv ATCC 27294; test: Resazurin Microtiter Assay (REMA), MIC90 against M. tuberculosis H37Rv; conditions: for MIC90 DMSO: complex solubilized in DMSO, mean ± SD; for Standard MIC Pre-determined: repeats Table 2 values, mean ± SD of three assays

Row | Compound | IC50 DMSO [1] | MIC90 DMSO [2] | Standard MIC Pre-determined [2] [µg/mL]
1 | Cc1ccnc(-c2cc(C)ccn2)c1.F[P-](F)(F)(F)(F)F.O=C([O-])c1ccccn1.[Ru+2].c1ccc(P(CCCCP(c2ccccc2)c2ccccc2)c2ccccc2)cc1 [SCAR2, [Ru(pic)(dppb)(Me-bipy)]PF6] | 6.51 ± 0.67^a μg mL^-1 | 1.08 ± 0.12^a μg mL^-1 | 1.08 ± 0.12
2 | F[P-](F)(F)(F)(F)F.O=C([O-])c1ccccn1.[Ru+2].c1ccc(P(CCP(c2ccccc2)c2ccccc2)c2ccccc2)cc1.c1ccc(P(CCP(c2ccccc2)c2ccccc2)c2ccccc2)cc1 [SCAR5, cis-[Ru(pic)(dppe)2]PF6] | 3.88 ± 0.98^a μg mL^-1 | 1.32 ± 0.03^a μg mL^-1 | 1.32 ± 0.03
3 | [Ru(pic)(dppb)(bipy)]PF6 [SCAR1] | 22.26 ± 1.85^a μg mL^-1 | 1.18 ± 0.08^a μg mL^-1 | 1.18 ± 0.08
4 | [Ru(pic)(dppb)(phen)]PF6 [SCAR4] | 7.57 ± 0.13^a μg mL^-1 | 1.34 ± 0.08^a μg mL^-1 | 1.34 ± 0.08
5 | [Ru(pic)(dppe)(phen)]PF6 [SCAR7] | 14.36 ± 1.57^a μg mL^-1 | 0.98 ± 0.05^a μg mL^-1 | 0.98 ± 0.05
